In patent US20250352675A1, “CA-IX TARGETING FLUORESCENT PROBES” (BRACCO IMAGING S.P.A., priority 2022, published 2025):

Experiments:
[1] = molecular target: T1, recombinant bovine CAII enzyme (bCAII) (Bos taurus, UniProt P00921); experiment: Dansylamide (DNSA) displacement fluorescence assay on carbonic anhydrase catalytic site; type: binding; settings: 0.25 μM bCAII, 5 μM DNSA, 20 mM Tris pH 8; triplicate; read-out: CAII receptor affinity (KD)
T1 construct: purchased Sigma-Aldrich; host or cells: E. coli
T1 sequence (P00921 whole entry): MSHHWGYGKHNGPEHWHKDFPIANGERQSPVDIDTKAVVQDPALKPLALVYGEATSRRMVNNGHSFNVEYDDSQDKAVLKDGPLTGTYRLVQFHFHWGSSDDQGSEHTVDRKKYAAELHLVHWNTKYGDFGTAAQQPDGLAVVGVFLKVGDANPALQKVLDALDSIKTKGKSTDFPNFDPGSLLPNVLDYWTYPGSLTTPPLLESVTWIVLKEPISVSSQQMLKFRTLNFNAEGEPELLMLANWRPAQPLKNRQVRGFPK
Procedure: The binding affinity of the compounds of formula (I) to Carbonic Anhydrase (CA) catalytic site was determined to assess the targeting efficacy of the molecular vectors, even after labeling the targeting ligand with the fluorescent portion of the probe.
Such enzyme in fact is highly available and has a catalytic site with high degree of homology in different carbonic anhydrase isoforms (Aggarwal M. et al., J Enzyme Inhib Med Chem 2013; 28(2): 267-277).
The dissociation constant (Ko) of compounds of formula (I) for bCAII was estimated by performing a fluorescence-based assay, exploiting the drop of fluorescence deriving from the displacement of carbonic anhydrase-bound dansylamide (DNSA) in presence of competitors and was adapted for application in 96-well plates from Wang S C et al., Biochem Mol Biol Educ. 2006, 34(5): 364-368. […] In both cases DNSA is excited at about 320 nm. Thus, excitation of carbonic anhydrase aromatic residues (Trp) at 285 nm generates an emission at 340 nm, that is quenched in presence of bound DNSA. The quenching occurs by FRET (fluorescence resonance energy transfer) to bound DNSA, which is in turn excited, emitting at 460 nm.
Molecules that bind to CA in the same binding site of DNSA, such as sulfonamides or derivatives, competitively displace DNSA from CA. The degree of displacement is function of the affinity of competitors and can be followed through the drop of fluorescence at 460 nm.
In detail, 5-(Dimethylamino)-1-naphthalenesulfonamide (dansylamide, DNSA, Sigma-Aldrich 218898) was reconstituted in 20 mM Tris pH 8, aliquoted and stored at −20° C.; bCAII (recombinant, expressed in E. Coli, Sigma-Aldrich) was divided in aliquots and stored at −20° C.
DNSA fluorescence emission at 462 nm from each well was recorded after excitation at 285 nm (Trp wavelength of excitation) and consequent selective excitation of DNSA bound to bCAII by FRET. Fractional saturation of bCAII was experimentally determined through normalization of fluorescence data between 1 (no compounds) and 0 (maximal DNSA displacement by presence of binding competitors), according to the equation below: […]
where r is fractional saturation, FLobs is the recorded fluorescence intensity, FLmin is the fluorescence intensity recorded at maximal concentration of compounds, and FLmax is fluorescence recorded in absence of compounds.
The KD of CA-binding compounds (=KDcomp) was then derived by mathematical fitting of experimental data according to the equation: […]
Mathematical fitting was performed using Microsoft Excel Solver.
All compounds were tested in triplicate.

[2] = Ex vivo biodistribution, organ-to-muscle ratio; type: in vivo, mice; settings: 1 nmol/mouse, 24 hours after administration
Procedure: (§1) The ex vivo biodistribution of the representative compounds 1, 2 and 3 and of the reference compound HF-1 (at 1 nmol/mouse) was evaluated in HT-29 excised tumors and tissues at the end of the in vivo OI sessions 24 hours post intravenous administration. At the end of the in vivo experiment, animals were euthanized by overdose of gaseous anesthesia followed by cervical dislocation. Tumor tissue, muscle, and other organs of interest were removed for ex vivo fluorescent signal measurements. The fluorescence signal intensity was measured by the IVIS Spectrum system. Regions of interest (ROIs) were drawn around each organ and tumor using the Living Image Software (PerkinElmer) and evaluating signal intensity in the tissues (expressed as Average Radiant Efficiency). The ratio between the fluorescence signal in the organs and tumor was then calculated to assess the contrast to hind limb muscle (representing the background).
Moreover, FIG. 6 (b) and Table VIII show the accumulation and distribution of the fluorescent probes in the dissected organs, reporting the ex vivo values of organs-to-muscle ratio from samples collected at 24 hours after the administration of representative compounds 1, 2 and 3 and of the reference compound HF-1 (1 nmol/mouse).

HT-29 colorectal tumor = experiment: In vivo optical imaging of HT-29 tumor bearing mice (tumor-to-background ratio); settings: 1 nmol/mouse intravenous, 24 hours after administration; tumor vs hind limb muscle
Procedure: HT-29 cells were collected and washed once with serum-free medium. Five million HT-29 cells were suspended in 0.1 mL serum-free medium and injected subcutaneously in the right flank of 5 weeks old mice. Tumor development was followed by caliper measurement twice a week, from 7 days after inoculation. Tumor volume was calculated according to the formula: (L*W2)/2, where L and W are the maximum length and width of the tumor.
Optical Imaging experiments on HT-29 tumor bearing animals were performed after administration of HF-1, as reference compound, and compounds 1, 2 and 3, all at a dose of 1 nmol/mouse in an administration volume of 0.1 mL (corresponding to about 5 mL/kg, considering a 20 g-mouse) at an injection rate of about 1 mL/min, by the IVIS Spectrum system when the tumor reached at least 200 mm^3 volume.
For each group, in vivo OI experiments were performed at 0.5, 1, 2, 3, 4, 6 and 24 hours after intravenous administration of the fluorescent compounds. During imaging experiments animals were maintained under gaseous anesthesia. Regions of interest (ROIs) were drawn on the tumor and on a reference background healthy region (hind limb muscle) of the mouse for each fluorescence image at every time point to evaluate signal intensity in the tissues (expressed as Average Radiant Efficiency). The ratio between the fluorescence signal in the tumor and in the background healthy tissue (tumor-to-background ratio, TBR) was then calculated to assess the contrast.
All the compounds of the invention and HF-1 were tested at a dose of 1 nmol/mouse.

HT-29 tumor = experiment: Ex vivo tumor-to-background ratio in excised HT-29 tumors; set-up: species or system mice; settings: 1 nmol/mouse, samples collected 24 hours after administration; tumor vs hind limb muscle
Procedure: as §1

| Structure (SMILES) | Kd [1] [nM] | Organ-to-muscle ratio, intestine [2] | Organ-to-muscle ratio, kidney [2] | Organ-to-muscle ratio, liver [2] | Organ-to-muscle ratio, skin [2] | Organ-to-muscle ratio, spleen [2] | Organ-to-muscle ratio, stomach [2] | in vivo TBR (mean ± SD) (HT-29 colorectal tumor) | ex vivo TBR ± SD, HT-29 tumor (HT-29 tumor) |
| --- | --- | --- | --- | --- | --- | --- | --- | --- | --- |
| CC1(C)C(/C=C/C=C/C=C/C=C2/N(CCCCS(=O)(=O)O)c3ccc(C(=O)NC[C@H](O)[C@@H](O)[C@H](O)[C@H](O)CO)cc3C2(C)C)=[N+](CCCCS(=O)(=O)[O-])c2ccc(C(=O)NCCCCCCCC(=O)Nc3nnc(S(N)(=O)=O)s3)cc21 [Compound 1] | 6.2 ± 0.6 | 1.5 ± 0.3 | 8.3 ± 1.9 | 3.3 ± 1.1 | 1.1 ± 0.2 | 0.5 ± 0.1 | 11.3 ± 3.2 | 5.9 ± 1.2 | 16.4 ± 4.4 |
| CC1(C)C(/C=C/C=C/C=C/C=C2/N(CCCCS(=O)(=O)O)c3ccc(S(=O)(=O)O)cc3C2(C)C)=[N+](CCCCS(=O)(=O)[O-])c2ccc(C(=O)NCCCCCCCC(=O)Nc3nnc(S(N)(=O)=O)s3)cc21 [Compound 2] | 3.7 ± 0.3 | 1.2 ± 0.1 | 4.0 ± 1.7 | 2.7 ± 0.4 | 1.6 ± 0.4 | 1.0 ± 0.1 | 7.1 ± 1.2 | 5.1 ± 1.9 | 15.2 ± 5.9 |
| CC1(C)C(/C=C/C2=C(Oc3ccc(S(=O)(=O)O)cc3)C(=C/C=C3/N(CCCCS(=O)(=O)O)c4ccc(S(=O)(=O)O)cc4C3(C)C)/CCC2)=[N+](CCCCS(=O)(=O)[O-])c2ccc(C(=O)NCCCCCCCC(=O)Nc3nnc(S(N)(=O)=O)s3)cc21 [Compound 3] | 3.8 ± 0.5 | 1.5 ± 0.2 | 4.7 ± 1.6 | 3.1 ± 0.6 | 1.0 ± 0.1 | 1.0 ± 0.1 | 3.5 ± 0.3 | 2.2 ± 0.6 | 5.8 ± 2.2 |
